The values that follow come from paper PMC12686966, “Da‐Bu‐Yin‐Wan and Qian‐Zheng‐San Alleviate Parkinson's Disease by Activating the Keap1/Nrf2/HO‐1 Pathway to Positively Regulate Oxidative Stress” (CNS Neuroscience & Therapeutics, 2025).

Counter-ions that a name gives are not always drawn. Like-named read-outs stand apart in the source and are kept apart here.

A short description of data set [1]: Pharmacokinetic study of 10 major BYQZF components in plasma (UPLC-MS/MS). As to conditions: for pharmacokinetics in MPTP + BYQZF group compared with BYQZF without MPTP group: p < 0.05; for MRT last: MRT(0-t).
Description: (§1) 6‐week‐old male C57BL/6J mice (20 ± 2 g; n = 6 per group) were orally administered the herbal decoction (BYQZF) at a dose of 5 g crude drug/kg. The administration volume was 10 mL/kg, and the concentration of the drug solution was 0.5 g/mL. Plasma samples were collected on day 14 after 14 consecutive days of drug administration. […] The supernatant samples were collected after centrifugation (5000 rpm, 10 min) and stored at −80°C immediately until analysis.
(§2) Each 100 μL plasma aliquot obtained at predetermined intervals was supplemented with 5 μL of internal standard solution (IS, 1 μg/mL) and 10 μL enzymatic hydrolysis cocktail (β‐glucuronidase/sulfatase mixture: 200 U/2 U enzymatic activity). The mixture underwent vortex mixing followed by 1‐h enzymatic digestion at physiological temperature (37°C). Subsequent protein precipitation was achieved through methanol addition (300 μL) with vigorous shaking. After phase separation by centrifugation (5000 rpm, 5 min), the organic supernatant was carefully decanted and subjected to nitrogen‐stream evaporation until completely dry. The residue was then reconstituted in 100 μL of mobile phase consisting of aqueous 0.1% FA‐ACN (v:v = 95:5) using ultrasonic‐assisted dissolution. Prior to UPLC‐MS/MS analysis, the final solution underwent high‐speed clarification centrifugation (13,000 rpm, 10 min) to remove particulate matter. The drug concentration‐time profiles were constructed, and pharmacokinetic parameters were analyzed using DAS 3.2.8 software.
The next data set deals with SH-SY5Y cells. Description: Annexin V-PE apoptosis detection (flow cytometry) in MPP+-treated SH-SY5Y cells. It is filed as cell-based, human. Particulars: Control siRNA; 1 mM MPP+ alone or followed by 4 μg/mL BYQZF 48 h; control cells 1.65%. The method, then:
The experiment used the human neuroblastoma SH‐SY5Y cell line to construct a stable transfected cell line. Cells were grown in a 1:1 MEM/F12 medium blend with added 15% fetal bovine serum for nutritional support. To avoid bacterial contamination, 500 IU/mL of penicillin and 500 μg/mL of streptomycin were incorporated. Cells were cultured at 37°C with 5% CO2 to maintain a pH of 7.2–7.4. The cell passage ratio was 1:2 to 1:4, and medium was replaced every 48–72 h to maintain the cells in the logarithmic growth phase. Routine testing confirmed that the cells were free from mycoplasma, bacterial, and fungal contamination. For cell freezing, a cryopreservation solution consisting of 60% base medium, 30% FBS, and 10% DMSO was used, and cells were stored in liquid nitrogen for long‐term preservation. The human Nrf2 knockdown plasmid, crafted by GeneChem, was used to transfect SH‐SY5Y cells seeded at a concentration of 100,000 cells per milliliter, utilizing the optimal amount of Lipofectamine 3000 (Invitrogen) in accordance with the protocol. 48 h subsequent to transfection, cells were exposed to 1 mM MPP^+ in the culture environment, and subsequently treated with 4 μg/mL BYQZF for another 48 h.

For data set [2] the following is noted: mouse, in vivo, po.
Description: as §1, §2
In a further data set the test system is Nrf2/HO-1 pathway. The arrangement: method as in PMID 27535021. As to conditions: hydrogen peroxide-induced oxidative stress ref 37; cited from earlier work.
The subject of a further data set is Nrf2/GPX4 pathway. The arrangement: method as in PMID 39631720, PMID 27632381. Particulars: PD models ref 40, 41; cited from earlier work.
Details of data set [3]: method as in PMID 28163115. Particulars: cited from earlier work.
[4] abbreviates: plasma, oral BYQZF 5 g crude drug/kg, group BYQZF (without MPTP), n=6.
The mark [5] stands for this setting: plasma, oral BYQZF 5 g crude drug/kg, group MPTP+BYQZF (PD model mice), n=6.
Setting [6] is: male, C57BL/6J, mouse, plasma, po, 5 g/kg, AUC(0-t), plasma, oral BYQZF 5 g crude drug/kg, group BYQZF (without MPTP), n=6.
The mark [7] stands for this setting: male, C57BL/6J, mouse, plasma, po, 5 g/kg, AUC(0-t), plasma, oral BYQZF 5 g crude drug/kg, group MPTP+BYQZF (PD model mice), n=6.
The mark [8] stands for this setting: male, C57BL/6J, mouse, plasma, po, 5 g/kg, Cmax, plasma, oral BYQZF 5 g crude drug/kg, group BYQZF (without MPTP), n=6.
The mark [9] stands for this setting: male, C57BL/6J, mouse, plasma, po, 5 g/kg, Cmax, plasma, oral BYQZF 5 g crude drug/kg, group MPTP+BYQZF (PD model mice), n=6.
Where [10] appears, read: male, C57BL/6J, mouse, plasma, po, 5 g/kg, plasma, oral BYQZF 5 g crude drug/kg, group BYQZF (without MPTP), n=6.
Setting [11] is: male, C57BL/6J, mouse, plasma, po, 5 g/kg, plasma, oral BYQZF 5 g crude drug/kg, group MPTP+BYQZF (PD model mice), n=6.

In the case of `O=c1c(O[C@@H]2O[C@H](CO)[C@H](O)[C@H](O)[C@H]2O)c(-c2ccc(O)c(O)c2)oc2cc(O)cc(O)c12` [Hyperin], in data set [1] (oral BYQZF 5 g crude drug/kg), the “pharmacokinetics in MPTP + BYQZF group compared with BYQZF without MPTP group” value is on record as “significantly different”. Moreover, in data set [1] (setting [4]), the “AUC(0-t)” value was determined as 0.24678 ± 0.01186 ng·h/mL, the Cmax worked out at 0.03885 ± 0.01016 ng/mL and the “MRT(0-t)” value was found to be 10.94 ± 0.64 h. For the same molecule, in data set [1] (setting [5]), the “AUC(0-t)” value came out at 0.17287 ± 0.02918 ng·h/mL, the Cmax came to 0.01989 ± 0.00355 ng/mL and the “MRT(0-t)” value stood at 12.22 ± 2.29 h.
Take `C[n+]1ccc(-c2ccccc2)cc1` [MPP^+, 1‐Methyl‐4‐phenylpyridinium]: the “proportion of apoptotic cells” value with SH-SY5Y cells worked out at 7.95%.
In the case of `N[C@@H](CC(=O)N[C@@H](CC(=O)O)C(=O)O)C(=O)O` [L-beta-aspartyl-L-aspartic acid], in data set [1] (oral BYQZF 5 g crude drug/kg), the “pharmacokinetics in MPTP + BYQZF group compared with BYQZF without MPTP group” value is given as “significantly different”. Also, in data set [1] (setting [4]), the “AUC(0-t)” value worked out at 0.01864 ± 0.00096 ng·h/mL, the Cmax is 0.02274 ± 0.00024 ng/mL and the “MRT(0-t)” value is 2.02 ± 2.07 h. In addition, in data set [1] (setting [5]), the “AUC(0-t)” value stood at 0.01424 ± 0.0026 ng·h/mL, the highest concentration (Cmax) was determined as 0.00887 ± 0.00191 ng/mL and the “MRT(0-t)” value was 2.13 ± 1.32 h.
Turning to `C[C@@H]1O[C@@H](O[C@@H]2[C@@H](O)[C@H](OCCc3ccc(O)c(O)c3)O[C@H](COC(=O)/C=C/c3ccc(O)c(O)c3)[C@H]2O)[C@H](O)[C@H](O)[C@H]1O` [Isoacteoside], the AUC(0-t) was found to be 2.8 ± 0.138 ng·h/mL in data set [1] (setting [6]) and 2.18 ± 0.31 ng·h/mL in data set [1] (setting [7]). For the same molecule, the Cmax in data set [1] (setting [8]) stood at 0.248 ± 0.0148 ng/mL; in data set [1] (setting [9]) it was 0.185 ± 0.00514 ng/mL. In addition, the MRT last in data set [1] (setting [10]) came out at 7.9 ± 0.47 h; in data set [1] (setting [11]), 8.87 ± 0.83 h. Besides, the “pharmacokinetics in MPTP + BYQZF group compared with BYQZF without MPTP group” value in data set [1] (oral BYQZF 5 g crude drug/kg) is on record as “significantly different”.
As to Manninotriose, in data set [2], the “pharmacokinetics in MPTP + BYQZF group compared with BYQZF without MPTP group” value is listed as “significantly different”.
`O[C@H]1[C@H](O)[C@@H](O)[C@H](O)[C@@H](O)[C@H]1O` [Inositol]: the AUC(0-t) in data set [1] (setting [6]) was determined as 0.32 ± 0.0658 ng·h/mL; in data set [1] (setting [7]) it was 0.0615 ± 0.0127 ng·h/mL. Besides, the Cmax in data set [1] (setting [8]) worked out at 0.0582 ± 0.0147 ng/mL; in data set [1] (setting [9]), 0.0239 ± 0.00194 ng/mL. Besides, the MRT last in data set [1] (setting [10]) amounted to 2.81 ± 0.27 h; in data set [1] (setting [11]), 11.2 ± 1.23 h.
`N[C@@H](CCC(=O)O)C(=O)O` [L-Glutamic acid]: the peak concentration (Cmax) in data set [1] (male, C57BL/6J, mouse, in vivo, po, 5 g/kg) turned out to be 0.0514 ± 0.00766 ng/mL; in data set [1] (male, C57BL/6J, mouse, plasma, po, 5 g/kg), 0.0146 ± 0.00047 ng/mL. Moreover, the AUC(0-t) is 0.102 ± 0.0119 ng·h/mL in data set [1] (setting [6]) and 0.0832 ± 0.0112 ng·h/mL in data set [1] (setting [7]). Further, the MRT last was found to be 4.47 ± 1.61 h in data set [1] (setting [10]) and 4.55 ± 1.19 h in data set [1] (setting [11]).
Turning to `O=c1cc[nH]c(=O)[nH]1` [Uracil], the AUC(0-t) in data set [1] (setting [6]) is 0.413 ± 0.0753 ng·h/mL; in data set [1] (setting [7]), 0.166 ± 0.0638 ng·h/mL. For the same molecule, the Cmax in data set [1] (setting [8]) amounted to 0.23 ± 0.0219 ng/mL; in data set [1] (setting [9]) it was 0.0395 ± 0.00762 ng/mL. For the same molecule, the MRT last in data set [1] (setting [10]) was found to be 2.01 ± 1.68 h; in data set [1] (setting [11]), 2.89 ± 0.17 h.
For the molecule `O=c1c(O)c(-c2ccccc2)oc2ccccc12` [3-Hydroxyflavone], the AUC(0-t) in data set [1] (setting [6]) was 0.401 ± 0.0765 ng·h/mL; in data set [1] (setting [7]), 0.341 ± 0.0517 ng·h/mL. Also, the Cmax in data set [1] (setting [8]) came to 0.105 ± 0.0146 ng/mL; in data set [1] (setting [9]) it was 0.0291 ± 0.00788 ng/mL. In addition, the MRT last in data set [1] (setting [10]) was 5.17 ± 3.67 h; in data set [1] (setting [11]) it was 13 ± 1.72 h. Also, the “pharmacokinetics in MPTP + BYQZF group compared with BYQZF without MPTP group” value in data set [1] (oral BYQZF 5 g crude drug/kg) was “significantly different”.
For the molecule `COc1ccc2cc3[n+](cc2c1OC)CCc1cc2c(cc1-3)OCO2` [Berberine hydrochloride], the Nrf2/HO-1 pathway result with Nrf2/HO-1 pathway is reported as “can activate”.
On to `C[C@H]1[C@H]2[C@H](O[C@@H]3O[C@H](CO)[C@@H](O)[C@H](O)[C@H]3O)OC=C(C(=O)O)[C@H]2C[C@@H]1O` [8-Epiloganic acid], for which the “pharmacokinetics in MPTP + BYQZF group compared with BYQZF without MPTP group” value in data set [2] was “significantly different”.
On to `C[C@@H]1O[C@@H](O[C@@H]2[C@@H](O)[C@H](OCCc3ccc(O)c(O)c3)O[C@H](CO)[C@H]2OC(=O)/C=C/c2ccc(O)c(O)c2)[C@H](O)[C@H](O)[C@H]1O` [Acteoside], for which, in the data set with Nrf2/GPX4 pathway, the Nrf2/GPX4 pathway result was “activate”.
As to `O=c1c2cc(O)c(O)cc2oc2cc(O)c([C@@H]3O[C@H](CO)[C@@H](O)[C@H](O)[C@H]3O)c(O)c12` [Mangiferol], in data set [2], the “pharmacokinetics in MPTP + BYQZF group compared with BYQZF without MPTP group” value is “significantly different”.
On to `OCC1=C[C@@H](O)[C@]2(O[C@@H]3O[C@H](CO)[C@@H](O)[C@H](O)[C@H]3O[C@@H]3O[C@H](CO)[C@@H](O)[C@H](O)[C@H]3O)C=CO[C@@H](O[C@@H]3O[C@H](CO)[C@@H](O)[C@H](O)[C@H]3O)[C@H]12` [Rehmannioside D], for which the “spontaneous oxidation of endogenous dopamine” value in data set [3] is recorded as “inhibit”.
